# From patent US11325936B2, “Sialidase inhibitors and preparation thereof” (The Regents of the University of California, priority 2017, dated 2022)
# Experiments:
# SpNanB [1] = target: T1, SpNanB (Streptococcus pneumoniae serotype 4, UniProt Q54727, E68D/K536E/K577E/N393D/S59P); assay: Substrate specificity of SpNanB; conditions: pNP-tagged α2-3-linked sialosides
# SpNanC [2] = assay: Substrate specificity assay of SpNanC; conditions: sialoside substrate 0.3 mM; SpNanC (2 μg); Tris-HCl pH 7.0; 30 min, 37° C.
# SpNanA = SpNanA (Streptococcus pneumoniae, UniProt P62575); assay: Sialidase inhibition assay (Example 4); type: biochemical; conditions: for inhibition at 100 µM: pH 6, read-out: Percentage inhibition (%) against SpNanA, 0.1 mM of each inhibitor, substrate Neu5Acα2-3GalβpNP 0.3 mM, pH 6.0
# SpNanB [3] = target: T1, SpNanB; assay: Sialidase inhibition assay (Example 4); type: biochemical; conditions: pH 6, read-out: Percentage inhibition (%) against SpNanB
# SpNanC [4] = target: SpNanC (Streptococcus pneumoniae, UniProt A0A0H2UQE4); assay: Sialidase inhibition assay (Example 4); type: biochemical; conditions: pH 6.5, read-out: Percentage inhibition (%) against SpNanC
# AuSialidase = target: T2, AuSialidase (Paenarthrobacter ureafaciens, UniProt Q5W7Q2); assay: Sialidase inhibition assay (Example 4); type: biochemical, Arthrobacter ureafaciens; conditions: pH 5.5, read-out: Percentage inhibition (%) against AuSialidase, 0.1 mM of each inhibitor, substrate Neu5Acα2-3GalβpNP 0.3 mM
# T2 sequence (Q5W7Q2 39-990): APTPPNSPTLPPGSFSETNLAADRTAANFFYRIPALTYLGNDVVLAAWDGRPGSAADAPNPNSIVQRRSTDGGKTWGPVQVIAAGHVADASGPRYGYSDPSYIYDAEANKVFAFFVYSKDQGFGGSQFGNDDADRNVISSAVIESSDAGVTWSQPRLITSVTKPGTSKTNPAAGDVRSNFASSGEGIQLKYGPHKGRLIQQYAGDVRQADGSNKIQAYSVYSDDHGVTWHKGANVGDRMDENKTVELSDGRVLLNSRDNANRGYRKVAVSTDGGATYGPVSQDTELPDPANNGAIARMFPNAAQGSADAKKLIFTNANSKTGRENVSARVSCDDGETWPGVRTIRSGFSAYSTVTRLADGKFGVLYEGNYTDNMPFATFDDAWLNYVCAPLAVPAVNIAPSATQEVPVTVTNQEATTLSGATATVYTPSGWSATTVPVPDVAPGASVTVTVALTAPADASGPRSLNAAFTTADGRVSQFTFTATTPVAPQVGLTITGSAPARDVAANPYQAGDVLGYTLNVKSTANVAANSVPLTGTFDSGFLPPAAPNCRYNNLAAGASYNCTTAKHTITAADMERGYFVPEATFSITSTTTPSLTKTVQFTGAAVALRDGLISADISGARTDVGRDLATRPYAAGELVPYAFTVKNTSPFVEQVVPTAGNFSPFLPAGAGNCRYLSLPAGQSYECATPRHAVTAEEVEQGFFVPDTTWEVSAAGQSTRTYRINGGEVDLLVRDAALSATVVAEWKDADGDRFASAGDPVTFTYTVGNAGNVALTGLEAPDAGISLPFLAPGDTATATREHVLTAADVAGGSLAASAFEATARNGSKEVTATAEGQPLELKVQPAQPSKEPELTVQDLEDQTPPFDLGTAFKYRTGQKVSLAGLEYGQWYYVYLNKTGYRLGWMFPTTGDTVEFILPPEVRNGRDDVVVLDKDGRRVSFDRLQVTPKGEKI
# Description: (§1) The assay conditions varied for different sialidases as described below: SpNanA (0.0015 μg), NaOAc buffer (100 mM, pH 6.0); SpNanB (0.003 μg), NaOAc buffer (100 mM, pH 6.0); SpNanC (0.02 μg), MES buffer (100 mM, pH 6.5); AuSialidase (1.0 mU), NaOAc buffer (100 mM, pH 5.5); CpNanI (2.0 mU), MES buffer (100 mM, pH 5.0); CpNanH (0.5 mU), MES buffer (100 mM, pH 5.0); VcSialidase (1.5 mU), NaCl (150 mM), CaCl2) (10 mM), NaOAc buffer (100 mM, pH 5.5); PmST1 (34.4 μg), NaOAc buffer (100 mM, pH 5.5); BiNanH2, NaOAc buffer (100 mM, pH 5.0); hNEU2 (22.0 μg), MES buffer (100 mM, pH 5.0). The reactions were incubated for 30 min at 37° C., and were stopped by adding CAPS buffer (N-cyclohexyl-3-aminopropane sulfonic acid, 40 μL, 0.5 M, pH 10.5). The amount of the para-nitrophenolate formed was determined by measuring the A405 nm Of the reaction mixtures using a microplate reader.
# (§2) The percentage inhibitions were determined using a concentration of 0.1 mM of each inhibitor, with reactions without inhibitors as controls. […] The values of IC50 were calculated by the software Grafit 5.0.
# CpNanI = type: biochemical, Clostridium perfringens; conditions: 0.1 mM of each inhibitor; substrate Neu5Acα2-3GalβpNP 0.3 mM; pH 5.0
# CpNanH = CpNanH (Clostridium perfringens, UniProt P10481); assay: biochemical; conditions: pH 5.0; read-out: Percentage inhibition (%) against CpNanH
# PmST1 = PmST1 (Pasteurella multocida, UniProt Q15KI8); assay: Sialidase inhibition assay (Example 4); type: biochemical; conditions: 0.1 mM of each inhibitor; substrate Neu5Acα2-3GalβpNP 0.3 mM; pH 5.5; read-out: Percentage inhibition (%) against PmST1
# Description: as §1, §2
# BiNanH2 = BiNanH2 (Bifidobacterium longum subsp. infantis, UniProt A0ACD7UU12); assay: Sialidase inhibition assay (Example 4); type: biochemical; conditions: pH 5, read-out: Percentage inhibition (%) against BiNanH2, 0.1 mM of each inhibitor, substrate Neu5Acα2-3GalβpNP 0.3 mM
# hNEU2 = hNEU2 (Homo sapiens, UniProt Q9Y3R4); assay: Sialidase inhibition assay (Example 4); type: biochemical; conditions: pH 5, 0.1 mM of each inhibitor, substrate Neu5Acα2-3GalβpNP 0.3 mM, read-out: Percentage inhibition (%) against hNEU2
# VcSialidase = VcSialidase (Vibrio cholerae serotype O1, UniProt P0C6E9); assay: biochemical; conditions: pH 5.5, read-out: Percentage inhibition (%) against VcSialidase, 0.1 mM of each inhibitor, substrate Neu5Acα2-3GalβpNP 0.3 mM
# hNEU2, sequence (Q9Y3R4 whole entry): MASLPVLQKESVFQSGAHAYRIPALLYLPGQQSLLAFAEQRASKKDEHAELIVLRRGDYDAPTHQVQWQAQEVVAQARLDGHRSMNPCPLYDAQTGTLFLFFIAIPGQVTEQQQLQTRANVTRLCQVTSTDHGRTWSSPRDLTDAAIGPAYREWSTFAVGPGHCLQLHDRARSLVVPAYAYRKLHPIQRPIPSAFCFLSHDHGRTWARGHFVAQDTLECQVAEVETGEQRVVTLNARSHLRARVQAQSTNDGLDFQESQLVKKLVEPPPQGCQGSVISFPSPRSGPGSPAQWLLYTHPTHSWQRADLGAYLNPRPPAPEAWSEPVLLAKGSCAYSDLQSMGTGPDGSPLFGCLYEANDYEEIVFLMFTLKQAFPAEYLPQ
# BiNanH2, sequence (A0ACD7UU12 entry or part of it): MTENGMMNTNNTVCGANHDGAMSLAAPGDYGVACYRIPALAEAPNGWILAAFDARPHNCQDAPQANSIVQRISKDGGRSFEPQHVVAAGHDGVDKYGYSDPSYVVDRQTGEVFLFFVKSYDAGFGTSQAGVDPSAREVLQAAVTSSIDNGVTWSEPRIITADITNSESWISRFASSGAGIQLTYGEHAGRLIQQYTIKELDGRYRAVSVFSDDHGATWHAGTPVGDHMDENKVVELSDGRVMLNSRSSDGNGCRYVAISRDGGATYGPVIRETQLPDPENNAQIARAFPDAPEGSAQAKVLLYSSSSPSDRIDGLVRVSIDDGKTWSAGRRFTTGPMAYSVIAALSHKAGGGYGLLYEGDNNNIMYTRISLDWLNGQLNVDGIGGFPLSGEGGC
Compound,Recognition by SpNanB (substrate specificity) (SpNanB [1]),Percentage conversion (%) by SpNanC (SpNanC [2]),inhibition at 100 µM (SpNanA),inhibition at 100 µM (SpNanB [3]),inhibition at 100 µM (SpNanC [4]),inhibition at 100 µM (AuSialidase),Percentage inhibition (%) against CpNanI (CpNanI),inhibition at 100 µM (CpNanH),inhibition at 100 µM (PmST1),inhibition at 100 µM (BiNanH2),inhibition at 100 µM (hNEU2),IC50 (SpNanA),inhibition at 100 µM (VcSialidase)
O=C(CO)NC1C(O)CC(OC2C(O)C(CO)OC(Oc3ccc([N+](=O)[O-])cc3)C2O)(C(=O)O)OC1C(O)C(O)CO (stereo not shown) [Neu5Gcα2-3GalβpNP],+ (+ represents >80% conversion),80.6 ± 6.7%,,,,,,,,,,,
"O=C(CO)N[C@@H]1C(O)C=C(C(=O)O)OC1[C@H](O)[C@H](O)CO (stereo partly drawn) [compound 7, 2,6-Anhydro-3,5-dideoxy-5-glycolylamido-D-glycero-D-galacto-non-2-enonic acid]",,,14%,4%,17%,47%,20%,9%,2%,19%,> 50%,,
"CC(=O)NC[C@@H](O)[C@@H](O)[C@@H]1OC(C(=O)O)=C[C@H](O)[C@H]1NC(C)=O [compound 9, 5,9-Diacetamido-2,6-anhydro-3,5,9-trideoxy-D-glycero-D-galacto-non-2-enonic acid]",,,86%,4%,8%,60%,63%,1%,19%,69%,27%,11 ± 0.2 µM,45%
"CC(=O)N[C@@H]1C(O)C=C(C(=O)O)OC1C[C@H](O)CO (stereo partly drawn) [compound 10, 5-Acetamido-2,6-anhydro-3,5,7-trideoxy-D-glycero-D-galacto-non-2-enonic acid]",,,89%,2%,5%,85%,57%,11%,15%,30%,42%,10.7 ± 0.4 µM,40%
"CCCCC(=O)NC[C@@H](O)[C@@H](O)[C@@H]1OC(C(=O)O)=C[C@H](O)[C@H]1NC(C)=O [compound 12, 5-Acetamido-2,6-anhydro-3,5,9-trideoxy-9-valeramido-D-glycero-D-galacto-non-2-enonic acid]",,,85%,3%,11%,40%,40%,3%,8%,71%,19%,10.5 ± 0.5 µM,43%
"CC(=O)N[C@@H]1C(O)C=C(C(=O)O)OC1[C@H](O)[C@H](O)CNC(=O)C1CC1 (stereo partly drawn) [compound 13, 5-Acetamido-2,6-anhydro-9-cyclopropylcarboxamido-3,5,9-trideoxy-D-glycero-D-galacto-non-2-enonic acid]",,,91%,2%,16%,61%,51%,7%,3%,78%,17%,6.8 ± 0.2 µM,40%
"O=C(Cc1ccccc1)N[C@H]1[C@H]([C@H](O)[C@H](O)CO)OC(C(=O)O)=C[C@@H]1O [compound 15, 2,6-Anhydro-3,5-dideoxy-5-phenylacetamido-D-glycero-D-galacto-non-2-enonic acid]",,,2%,5%,12%,13%,19%,8%,8%,17%,81%,,5%
Neu5Ac7N3α2-3GalβpNP,+ (+ represents >80% conversion),65.9 ± 1.1%,,,,,,,,,,,
